Article PMC10006169, “A phase I trial of LXS196, a protein kinase C (PKC) inhibitor, for metastatic uveal melanoma” (British Journal of Cancer, 2023)
Where “and” joins values, the source holds several entries; their conditions need not be identical. Equal values may be shown once.

What was measured:
[1] = tested on: patients with MUM; experiment: First cycle dose-limiting toxicities, phase I dose escalation; format: in vivo; conditions: for Maximum tolerated dose (MTD): BLRM and EWOC
Description: The study protocol and amendments were approved by the Independent Ethics Committee or Institutional Review Board for each centre, and all patients provided written informed consent. The study was conducted according to the principles of the Declaration of Helsinki and performed in compliance with Good Clinical Practice. All patients were aged ≥18 years old and had biopsy-proven MUM with progressive and measurable disease. […] There was no eligibility limit to the number of prior lines of therapy, including PKC inhibitors other than LXS196.
During dose escalation, patients received oral LXS196 either once daily (QD; 100–1000 mg) or twice daily (BID; 200–400 mg) in 28-day cycles until disease progression, intolerable toxicity or withdrawal of consent (Supplementary Fig. 1). Dosing was omitted on the second day of the first cycle (C1D2) to allow for longer post-dose sampling in order to better characterise PK. LXS196 was given on an empty stomach, at least 1 h before or 2 h after a meal. Dose escalation was guided by safety, PK data and a two-parameter Bayesian Logistic Regression Model (BLRM) employing escalation with overdose control (EWOC) criteria. The DLT period lasted 28 days after the first dose of LXS196. […] Upon determination of the MTD/RDE, the expansion part of the study was opened to further evaluate the safety, tolerability, PK and PD of LXS196 at the RDE in patients with MUM. No hypothesis testing was planned in this study, and therefore, no formal sample size calculation was needed. The sample size was selected to ensure the BLRM had adequate operating characteristics when selecting the MTD/RDE.
Routine safety assessments, including laboratory assessments, physical examinations, vital signs and electrocardiograms (ECGs), were conducted at regular intervals throughout the study and more frequently as needed following patient assessment by the treating physician. Adverse events (AEs) were assessed continuously according to the National Cancer Institute Common Terminology Criteria for Adverse Events (NCI-CTCAE) v4.03.

[2] = tested on: MARCKS (pMARCKS); experiment: pMARCKS in tumour biopsies (Meso Scale Discovery); format: in vivo, human; conditions: QD schedule
Source text: Fresh metastatic tumour biopsies were collected at baseline (prior to first dose) and on treatment at C1D15 to evaluate the modulation of PKC substrate proteins in tumours following exposure to LXS196 and to perform exploratory transcriptome and targeted DNA sequencing. Whole blood samples (peripheral blood mononuclear cells; PBMCs) were collected pre-dose on C1D1 and D15, and at various time points post-dose on C1D1, D2, D3, D15 and D16 to evaluate the modulation of PKC substrate proteins in a surrogate tissue. Owing to the exploratory nature of this phase I study, formal statistical tests were not planned to be performed. Data are presented using descriptive statistics and visualisations. Continuous variables are described with the mean and range. […]
Custom assays were developed to measure the status of the PKC pathway. In brief, tumour tissue was homogenised in lysis buffer, and total protein concentrations were determined using a bicinchoninic acid (BCA) assay (Pierce). […] Total and phosphorylated PKCdelta (PKCd; pPKCd, phosphorylated at S299) levels were determined using microcapillary electrophoresis on the Sally Sue platform (Protein Simple, San Jose, CA, USA). Area under the peaks corresponding to the target was measured and used for further calculation. […]
Total and phosphorylated MARCKS were measured in all feasible tumour biopsies. […] The normalised MARCKS is calculated as follows: […]

CC1(N)CCN(c2cccnc2NC(=O)c2nc(-c3ncccc3C(F)(F)F)cnc2N)CC1 [LXS196]
2 (18.2) (Grade 3) n (%): Hypotension DLT ([1]; 500 mg QD n=11, Grade 3)
2 (50.0) (Grade 2 and 4) n (%): Hypotension DLT ([1]; 1000 mg QD n=4, Grade 2 and 4)
1.8 n (%) and 1 (1.8) n (%): Generalised oedema DLT ([1]; All patients n=55) | Nausea DLT ([1]; All patients n=55) | Neutropenia DLT ([1]; All patients n=55) | Vomiting DLT ([1]; All patients n=55)
2 (33.4) n (%): Total DLT events ([1]; 400 mg BID n=6)
1 (100) (Grade 4) n (%): Hypotension DLT ([1]; 800 mg QD n=1, Grade 4)
8 (21.0) n (%): Total DLT events ([1]; All QD n=38)
1 (100) n (%): Total DLT events ([1]; 800 mg QD n=1)
−39.7 (−89.7, 199) %: pMARCKS, mean (range) percentage change from baseline to C1D15 (normalised ratio) [2]
16.4 n (%): Total DLT events ([1]; All patients n=55)
1 (2.6) n (%): Nausea DLT ([1]; All QD n=38) | Neutropenia DLT ([1]; All QD n=38) | Vomiting DLT ([1]; All QD n=38)
0 n (%): Generalised oedema DLT ([1]; 100 mg QD n=3) | Hypotension DLT ([1]; 100 mg QD n=3) | Nausea DLT ([1]; 100 mg QD n=3) | Neutropenia DLT ([1]; 100 mg QD n=3) | Total DLT events ([1]; 100 mg QD n=3) | Vomiting DLT ([1]; 100 mg QD n=3) | Generalised oedema DLT ([1]; 200 mg BID n=5) | Hypotension DLT ([1]; 200 mg BID n=5) | Nausea DLT ([1]; 200 mg BID n=5) | Neutropenia DLT ([1]; 200 mg BID n=5) | Total DLT events ([1]; 200 mg BID n=5) | Vomiting DLT ([1]; 200 mg BID n=5) | Generalised oedema DLT ([1]; 200 mg QD n=4) | Hypotension DLT ([1]; 200 mg QD n=4) | Neutropenia DLT ([1]; 200 mg QD n=4) | Generalised oedema DLT ([1]; 300 mg BID n=6) | Hypotension DLT ([1]; 300 mg BID n=6) | Nausea DLT ([1]; 300 mg BID n=6) | Neutropenia DLT ([1]; 300 mg BID n=6) | Total DLT events ([1]; 300 mg BID n=6) | Vomiting DLT ([1]; 300 mg BID n=6) | Generalised oedema DLT ([1]; 300 mg QD n=15) | Hypotension DLT ([1]; 300 mg QD n=15) | Nausea DLT ([1]; 300 mg QD n=15) | Neutropenia DLT ([1]; 300 mg QD n=15) | Total DLT events ([1]; 300 mg QD n=15) | Vomiting DLT ([1]; 300 mg QD n=15) | Nausea DLT ([1]; 400 mg BID n=6) | Neutropenia DLT ([1]; 400 mg BID n=6) | Vomiting DLT ([1]; 400 mg BID n=6) | Generalised oedema DLT ([1]; 500 mg QD n=11) | Nausea DLT ([1]; 500 mg QD n=11) | Vomiting DLT ([1]; 500 mg QD n=11) | Generalised oedema DLT ([1]; 800 mg QD n=1) | Nausea DLT ([1]; 800 mg QD n=1) | Neutropenia DLT ([1]; 800 mg QD n=1) | Vomiting DLT ([1]; 800 mg QD n=1) | Generalised oedema DLT ([1]; 1000 mg QD n=4) | Nausea DLT ([1]; 1000 mg QD n=4) | Neutropenia DLT ([1]; 1000 mg QD n=4) | Vomiting DLT ([1]; 1000 mg QD n=4) | Nausea DLT ([1]; All BID n=17) | Neutropenia DLT ([1]; All BID n=17) | Vomiting DLT ([1]; All BID n=17) | Generalised oedema DLT ([1]; All QD n=38)
5 (13.2) n (%): Hypotension DLT ([1]; All QD n=38)
3 (27.3) n (%): Total DLT events ([1]; 500 mg QD n=11)
1 (25.0) (Grade 3) n (%): Nausea DLT ([1]; 200 mg QD n=4, Grade 3) | Vomiting DLT ([1]; 200 mg QD n=4, Grade 3)
6 (10.9) n (%): Hypotension DLT ([1]; All patients n=55)
≥ 500 mg/day: Doses at which hypotension DLT occurred ([1]; most common DLT)
300 mg: Recommended dose for expansion (RDE) ([1]; BID)
1 (5.9) n (%): Generalised oedema DLT ([1]; All BID n=17) | Hypotension DLT ([1]; All BID n=17)
2 (50.0) n (%): Total DLT events ([1]; 200 mg QD n=4) | Total DLT events ([1]; 1000 mg QD n=4)
1 (16.7) (Grade 3) n (%): Generalised oedema DLT ([1]; 400 mg BID n=6, Grade 3)
2 (11.8) n (%): Total DLT events ([1]; All BID n=17)
1 (9.1) (Grade 4) n (%): Neutropenia DLT ([1]; 500 mg QD n=11, Grade 4)
500 mg: Maximum tolerated dose (MTD) ([1]; QD schedule)
400 mg: Maximum tolerated dose (MTD) ([1]; BID schedule)
1 (16.7) n (%): Hypotension DLT ([1]; 400 mg BID n=6)
